According to patent publication US20230265151A1, “GIP/GLP1 CO-AGONIST COMPOUNDS” (priority 2020, published 2023):
Where two headings read alike, the source gives them in different places.

Assays:
[1] = target: T1, human GIP receptor (hGIPR) (Homo sapiens, UniProt P48546); assay: [125I]-GIP binding, SPA with membranes of CHO cells expressing hGIPR
T1 construct: expressed in transfected cells; crude membranes
T1 sequence (P48546 22-466): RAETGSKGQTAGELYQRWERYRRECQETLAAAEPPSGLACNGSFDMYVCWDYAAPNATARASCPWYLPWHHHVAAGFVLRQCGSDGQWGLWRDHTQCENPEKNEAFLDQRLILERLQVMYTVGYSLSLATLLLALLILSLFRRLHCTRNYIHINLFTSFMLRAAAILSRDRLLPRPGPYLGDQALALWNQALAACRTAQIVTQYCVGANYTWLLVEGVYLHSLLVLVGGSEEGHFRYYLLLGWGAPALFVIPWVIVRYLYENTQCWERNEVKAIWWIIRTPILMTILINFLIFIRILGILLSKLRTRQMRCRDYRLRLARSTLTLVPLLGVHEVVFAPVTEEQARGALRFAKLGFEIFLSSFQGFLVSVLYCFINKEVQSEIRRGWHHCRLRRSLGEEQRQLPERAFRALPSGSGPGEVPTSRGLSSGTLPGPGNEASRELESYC

hGCGR = target: T2, hGCGR (Homo sapiens, UniProt P47871); assay: Functional cAMP formation (HTRF) in HEK-293 clonal cells expressing hGCGR, 0.1% bovine casein, without or with 1.0% human serum albumin; assay type: cell-based
T2 construct: expressed in transfected cells
T2 sequence (P47871 26-477): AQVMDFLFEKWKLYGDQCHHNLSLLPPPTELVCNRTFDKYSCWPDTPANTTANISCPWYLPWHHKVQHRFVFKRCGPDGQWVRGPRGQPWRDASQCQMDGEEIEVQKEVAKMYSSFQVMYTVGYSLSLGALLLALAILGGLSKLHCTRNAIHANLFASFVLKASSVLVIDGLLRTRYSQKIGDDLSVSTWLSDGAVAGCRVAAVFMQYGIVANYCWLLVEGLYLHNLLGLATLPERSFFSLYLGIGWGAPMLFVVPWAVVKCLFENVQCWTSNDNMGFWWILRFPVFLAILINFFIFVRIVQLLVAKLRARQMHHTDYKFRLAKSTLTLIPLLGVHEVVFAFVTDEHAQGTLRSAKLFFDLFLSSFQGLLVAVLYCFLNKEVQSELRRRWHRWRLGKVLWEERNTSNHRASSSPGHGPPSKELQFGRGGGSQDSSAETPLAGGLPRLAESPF
Procedure, shortened: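 Readings of the HTRF 665/620 nm ratio, which falls as cAMP rises, were converted to nM cAMP using a standard curve after 30 min peptide exposure at 37° C.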

[2] = human GIPR, geometric mean (SEM, n), read-out: Binding Affinity Ki, nM (SEM, n) hGIPR
[3] = 0.1% bovine casein and 1.0% human serum albumin, 37° C., geometric mean, read-out: hGCGR EC50, nM (SEM, n)
[4] = cAMP, incubated at 37° C., 0.1% bovine casein (no human serum albumin), geometric mean, read-out: hGCGR EC50, nM (SEM, n)

| Compound | Ki [1, 2] [nM] | EC50 (hGCGR; [3]) [nM] | EC50 (hGCGR; [4]) [nM] | Ki [1] [nM] | EC50 (hGCGR; hGCGR EC50, nM (SEM, n), cAMP, 37° C., 0.1% bovine casein (no human serum albumin), geometric mean) [nM] | EC50 (hGCGR; hGCGR EC50, nM (SEM, n), cAMP, 37° C., 0.1% bovine casein and 1.0% human serum albumin, geometric mean (SEM, n)) [nM] |
| --- | --- | --- | --- | --- | --- | --- |
| CC[C@H](C)[C@H](NC(=O)[C@H](CC(C)C)NC(=O)[C@](C)(Cc1ccc(O)cc1)NC(=O)[C@@H](CCC(=O)O)NC(=O)[C@@H](NC(=O)[C@H](Cc1ccccc1)NC(=O)[C@H](CCC(=O)O)NC(=O)C(C)(C)NC(=O)[C@H](CCC(N)=O)NC(=O)[C@H](C)NC(=O)[C@H](CCCCNC(=O)COCCOCCNC(=O)COCCOCCNC(=O)CC[C@H](NC(=O)CCCCCCCCCCCCC(=O)O)C(=O)O)NC(=O)[C@H](CCCN)NC(=O)[C@H](CC(=O)O)NC(=O)[C@H](CC(C)C)NC(=O)[C@](C)(CC(C)C)NC(=O)[C@@H](NC(=O)C(C)(C)NC(=O)[C@@H](NC(=O)[C@H](CC(=O)O)NC(=O)[C@H](CO)NC(=O)[C@@H](NC(=O)[C@](C)(Cc1ccccc1F)NC(=O)[C@@H](NC(=O)CNC(=O)[C@H](CCC(=O)O)NC(=O)C(C)(C)NC(=O)[C@@H](N)Cc1ccc(O)cc1)[C@@H](C)O)[C@@H](C)O)C(C)C)[C@@H](C)CC)[C@@H](C)CC)C(=O)N[C@@H](CCC(=O)O)C(=O)NCC(=O)NCC(=O)N[C@@H](CCCCNC(=O)COCCOCCNC(=O)COCCOCCNC(=O)CC[C@H](NC(=O)CCCCCCCCCCCCC(=O)O)C(=O)O)C(=O)N[C@@H](CO)C(=O)N[C@@H](CO)C(=O)NCC(=O)N[C@@H](C)C(=O)N1CCC[C@H]1C(=O)N1CCC[C@H]1C(=O)N1CCC[C@H]1C(=O)N[C@@H](CO)C(N)=O [Example 91] | 0.126 | > 9950 | > 9950 |  |  |  |
| CC[C@H](C)[C@H](NC(=O)[C@H](CC(C)C)NC(=O)[C@](C)(Cc1ccc(O)cc1)NC(=O)[C@H](CCCCNC(=O)CC[C@H](NC(=O)COCCOCCNC(=O)COCCOCCNC(=O)CC[C@H](NC(=O)CCCCCCCCCOc1ccc(C(=O)O)cc1)C(=O)O)C(=O)O)NC(=O)[C@@H](NC(=O)[C@H](Cc1ccccc1)NC(=O)[C@H](CCCN)NC(=O)C(C)(C)NC(=O)[C@H](CCC(N)=O)NC(=O)[C@H](C)NC(=O)[C@H](CCC(N)=O)NC(=O)[C@H](CCCN)NC(=O)[C@H](CC(=O)O)NC(=O)[C@H](CC(C)C)NC(=O)[C@](C)(CC(C)C)NC(=O)[C@@H](NC(=O)C(C)(C)NC(=O)[C@H](Cc1ccncc1)NC(=O)[C@H](CC(=O)O)NC(=O)[C@H](CO)NC(=O)[C@@H](NC(=O)[C@](C)(Cc1ccccc1F)NC(=O)[C@@H](NC(=O)CNC(=O)[C@H](CCC(=O)O)NC(=O)C(C)(C)NC(=O)[C@@H](N)Cc1ccc(O)cc1)[C@@H](C)O)[C@@H](C)O)[C@@H](C)CC)[C@@H](C)CC)C(=O)N[C@@H](CCCCNC(=O)CC[C@H](NC(=O)COCCOCCNC(=O)COCCOCCNC(=O)CC[C@H](NC(=O)CCCCCCCCCOc1ccc(C(=O)O)cc1)C(=O)O)C(=O)O)C(=O)NCC(=O)NCC(=O)N1CCC[C@H]1C(=O)N[C@@H](CO)C(=O)N[C@@H](CO)C(=O)NCC(=O)N[C@@H](C)C(=O)N1CCC[C@H]1C(=O)N1CCC[C@H]1C(=O)N1CCC[C@H]1C(=O)N[C@@H](CO)C(N)=O [Example 483] |  |  |  | 0.0236 | > 9950 | > 9950 |
| CC[C@H](C)[C@H](NC(=O)[C@H](CC(C)C)NC(=O)[C@](C)(Cc1ccc(O)cc1)NC(=O)[C@@H](CCC(=O)O)NC(=O)[C@@H](NC(=O)[C@H](Cc1ccccc1)NC(=O)[C@H](CCC(=O)O)NC(=O)C(C)(C)NC(=O)[C@H](CCC(N)=O)NC(=O)[C@H](C)NC(=O)[C@H](CCCCNC(=O)COCCOCCNC(=O)COCCOCCNC(=O)CC[C@H](NC(=O)CCCCCCCCCCCCC(=O)O)C(=O)O)NC(=O)[C@H](CCCN)NC(=O)[C@H](CC(=O)O)NC(=O)[C@H](CC(C)C)NC(=O)[C@](C)(CC(C)C)NC(=O)[C@@H](NC(=O)[C@](C)(CO)NC(=O)[C@@H](NC(=O)[C@H](CC(=O)O)NC(=O)[C@H](CO)NC(=O)[C@@H](NC(=O)[C@](C)(Cc1ccccc1F)NC(=O)[C@@H](NC(=O)CNC(=O)[C@H](CCC(=O)O)NC(=O)C(C)(C)NC(=O)[C@@H](N)Cc1ccc(O)cc1)[C@@H](C)O)[C@@H](C)O)C(C)C)[C@@H](C)CC)[C@@H](C)CC)C(=O)N[C@@H](CCC(=O)O)C(=O)NCC(=O)NCC(=O)N[C@@H](CCCCNC(=O)COCCOCCNC(=O)COCCOCCNC(=O)CC[C@H](NC(=O)CCCCCCCCCCCCC(=O)O)C(=O)O)C(=O)N[C@@H](CO)C(=O)N[C@@H](CO)C(=O)NCC(=O)N[C@@H](C)C(=O)N1CCC[C@H]1C(=O)N1CCC[C@H]1C(=O)N1CCC[C@H]1C(=O)N[C@@H](CO)C(N)=O [Example 212] | 0.161 | > 9950 | > 9950 |  |  |  |
